Experiments:
[1] = molecular target: T1, kappa opiate receptor (Cavia porcellus, UniProt P41144); assay: Inhibition of tritiated U69,593 binding to the kappa opiate receptor in guinea pig brain homogenates; parameters: Mean: unit not given beside the values; settings: 3 nm tritiated U69,593, guinea pig brain membranes; for % Bound: [3H]U69,593 bound; for % Inhibition: inhibition of [3H]U69,593 binding; for Mean: mean bound radioactivity of [3H]U69,593, 2.5 hours 25° C.; for Minus NSB: mean minus non-specific binding
T1 construct: guinea pig cortices and cerebella were homogenized in 40 mL of Buffer A; from tissue; host or cells: guinea pig cortices and cerebella, crude membrane suspension
In short: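 Guinea pig cortex and cerebellum membranes in 50 mM Tris-HCl pH 7.4 incubated with 3 nM [³H]U69,593 for 2.5 h at 25 °C, then filtered and bound radioactivity counted. Unlabelled U50,488 served as competitor for standard curve and nonspecific binding.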

[2] = molecular target: T2, mu opiate receptor (Rattus norvegicus, UniProt P33535); assay: Inhibition of [3H]DAMGO binding to the mu opiate receptor in rat brain homogenates; parameters: Mean: unit not given beside the values; settings: 0.08 mg of compound per milliliter, 7 nM 3H-labeled DAMGO, rat brain membranes; for % Bound: [3H]DAMGO bound; for Mean: mean bound radioactivity of [3H]DAMGO; for Minus NSB*: mean minus non-specific binding; for % Inhibition: percent inhibition of DAMGO binding
T2 construct: from tissue; host or cells: rat brain membranes/homogenate
In short: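 Members of an imidazo-imidazolone compound library were tested for blocking binding of [^3H]DAMGO, a mu opiate receptor-specific ligand, to rat brain membranes. Each 0.65 mL tube held 0.08 mg of compound mixture per milliliter, 0.5 mL membrane suspension (0.1 mg of protein) and 7 nM ^3H-labeled DAMGO (36 Ci/mmol) in 50 mM Tris-HCl buffer (pH 7.4).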

T2 sequence (P33535 whole entry): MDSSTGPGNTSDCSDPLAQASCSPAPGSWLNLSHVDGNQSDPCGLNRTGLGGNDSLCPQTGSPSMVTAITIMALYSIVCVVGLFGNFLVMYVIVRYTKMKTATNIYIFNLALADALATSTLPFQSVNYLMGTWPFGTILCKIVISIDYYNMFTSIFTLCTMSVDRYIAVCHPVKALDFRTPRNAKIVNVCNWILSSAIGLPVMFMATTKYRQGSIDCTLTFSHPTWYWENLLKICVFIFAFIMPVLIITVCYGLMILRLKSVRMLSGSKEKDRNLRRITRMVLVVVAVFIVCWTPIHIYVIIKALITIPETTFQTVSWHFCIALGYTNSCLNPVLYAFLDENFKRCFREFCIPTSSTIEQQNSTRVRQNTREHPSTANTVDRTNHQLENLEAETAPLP
T1 sequence (P41144 whole entry): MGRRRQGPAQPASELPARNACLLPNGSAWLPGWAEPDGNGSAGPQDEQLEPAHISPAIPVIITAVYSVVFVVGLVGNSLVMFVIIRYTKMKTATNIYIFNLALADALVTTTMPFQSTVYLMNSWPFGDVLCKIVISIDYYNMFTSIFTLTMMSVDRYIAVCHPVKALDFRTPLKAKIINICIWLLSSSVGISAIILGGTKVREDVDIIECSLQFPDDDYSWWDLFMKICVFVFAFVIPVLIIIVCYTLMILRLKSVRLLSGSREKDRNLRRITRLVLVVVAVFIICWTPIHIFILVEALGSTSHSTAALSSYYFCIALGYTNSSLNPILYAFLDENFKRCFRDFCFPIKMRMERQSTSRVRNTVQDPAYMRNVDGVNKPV

Row | SMILES | % Bound [1] [%] | % Inhibition [1] [%] | Mean [1] | Minus NSB [1] | % Bound [2] [%] | Mean [2] | Minus NSB* [2] | % Inhibition [2] [%]
1 | CC(C)c1nc(C(C2CCCCC2)C2CCCCC2)n2c1NC(=O)C2C(C)C (stereo not shown) [Pool 139] | 58.779 | 41.221 | 1515.95 | 608.95 | 65 | 928.85 | 620.85 | 35
2 | Cc1ccc(Cc2nc(C(C)C)c3n2C(C(C)C)C(=O)N3)cc1 (racemic) [Pool 74] | 48.287 | 51.713 | 1407.25 | 500.25 | 58 | 858.65 | 550.65 | 42
3 | Cc1nc(C(C)C)c2n1C(C(C)C)C(=O)N2 (stereo not shown) [Pool 36] | 84.976 | 15.024 | 1787.35 | 880.35 | 66 | 940.6 | 632.60 | 34
4 | CC(C)c1nc(Cc2ccc(Br)cc2)n2c1NC(=O)C2C(C)C (racemic) [Pool 77] | 73.658 | 26.342 | 1670.1 | 763.10 | 39 | 682.95 | 374.95 | 61
5 | Cc1nc(C(C)C)c2n1C(C(C)C)C(=O)N2 (stereo not shown) [Pool 142] | 79.324 | 20.676 | 1728.8 | 821.80 | 67 | 946.05 | 638.05 | 33
6 | Cc1nc(C(C)C)c2n1C(CC1CCCCC1)C(=O)N2 (stereo not shown) [Pool 29] | 88.277 | 11.723 | 1821.55 | 914.55 | 61 | 891.65 | 583.65 | 39
7 | CC(C)c1nc(C2(c3ccccc3)CC2)n2c1NC(=O)C2C(C)C (racemic) [Pool 67] | 84.662 | 15.338 | 1784.1 | 877.10 | 55 | 830 | 522.00 | 45
8 | CCC(C)c1nc(C)n2c1NC(=O)C2C(C)C (stereo not shown) [Pool 54] | 100.410 | −0.410 | 1947.25 | 1040.25 | 53 | 815.2 | 507.20 | 47
9 | CCCCc1nc(C)n2c1NC(=O)C2C(C)C (racemic) [Pool 60] | 81.892 | 18.108 | 1755.4 | 848.40 | 62 | 902.8 | 594.80 | 38
10 | CC(C)c1nc(Cc2cc(C(F)(F)F)cc(C(F)(F)F)c2)n2c1NC(=O)C2C(C)C (racemic) [Pool 82] | 70.589 | 29.411 | 1638.3 | 731.30 | 63 | 911.65 | 603.65 | 37
11 | Cc1nc(CC2CCCCC2)c2n1C(C(C)C)C(=O)N2 (stereo not shown) [Pool 46] | 121.815 | −21.815 | 2169 | 1262.00 | 60 | 881.4 | 573.40 | 40
12 | CCC(C)c1nc(C)n2c1NC(=O)C2C(C)C (stereo not shown) [Pool 38] | 68.639 | 31.361 | 1618.1 | 711.10 | 40 | 687.75 | 379.75 | 60
13 | CCOc1ccc(Cc2nc(C(C)C)c3n2C(C(C)C)C(=O)N3)cc1 (racemic) [Pool 79] | 90.338 | 9.662 | 1842.9 | 935.90 | 65 | 929.1 | 621.10 | 35
14 | Cc1nc(Cc2ccccc2)c2n1C(C(C)C)C(=O)N2 (stereo not shown) [Pool 47] | 104.469 | −4.469 | 1989.3 | 1082.30 | 62 | 897.8 | 589.80 | 38
15 | CC(C)c1nc(Cc2cccc(Br)c2)n2c1NC(=O)C2C(C)C (racemic) [Pool 72] | 65.748 | 34.252 | 1588.15 | 681.15 | 27 | 563 | 255.00 | 73
16 | CC(C)c1nc(C2CCCCC2)n2c1NC(=O)C2C(C)C (stereo not shown) [Pool 137] | 129.619 | −29.619 | 2249.85 | 1342.85 | 66 | 933.35 | 625.35 | 34
17 | Cc1nc(C(C)C)c2n1C(C(C)C)C(=O)N2 (stereo not shown) [Pool 19] | 84.580 | 15.420 | 1783.25 | 876.25 | 75 | 1027.75 | 719.75 | 25
18 | Cc1nc(Cc2ccccc2)c2n1C(C(C)C)C(=O)N2 (racemic) [Pool 63] | 84.913 | 15.087 | 1786.7 | 879.70 | 57 | 854.35 | 546.35 | 43
19 | CCC(c1ccccc1)c1nc(C(C)C)c2n1C(C(C)C)C(=O)N2 (mixture of isomers) [Pool 68] | 106.786 | −6.786 | 2013.3 | 1106.30 | 66 | 935.45 | 627.45 | 34
20 | CC(C)c1nc(CC(C)c2ccccc2)n2c1NC(=O)C2C(C)C (mixture of isomers) [Pool 69] | 67.157 | 32.843 | 1602.75 | 695.75 | 62 | 900.1 | 592.10 | 38

Reference: US6545032B1, “Synthesis of [3,5,7]-H-imidazo[1,5-a] imidazol-2(3H)-one compounds” (Torrey Pines Institute for Molecular Studies, priority 1999, dated 2003)
